{
  "source": "patent US10798955B2",
  "about": "“Compositions of particulate coformulation” (Nektar Therapeutics, priority 2000, dated 2020)",
  "assay": "Storage stability at room temperature and 100% relative humidity",
  "assay_type": "physicochemical",
  "details": "200 mg stored for a month at room temperature and 100% relative humidity",
  "method": "For the assessment of stability, 200 mg of the Example A6 product (60% w/w QS in EC) was stored for a month at room temperature and 100% relative humidity, alongside a sample of the as-received pure QS.",
  "data": [
    {"smiles": "C=C[C@H]1C[N@@]2CC[C@H]1C[C@H]2[C@H](O)c1ccnc2ccc(OC)cc12", "note": "[quinine sulphate]", "values": [
      {"measurement": "powder physical appearance and flow properties after storage", "result": "signs of partial caking and a lower degree of powder flowability"}
    ]}
  ]
}
